Common to all, as to format: organism-based
Holding throughout (conditions): in vivo, 120 h, time 5 day

The nature of data set [1]: Toxicity in BALB/c mouse at 50 mg/kg, iv administered daily for 5 days.
A short description of data set [2]: Toxicity in BALB/c mouse assessed as animal death at 8 mg/kg, iv administered daily for 5 days and measured after 2 dose.
Data set [3] is described as follows: Toxicity in BALB/c mouse assessed as lethargy at 8 mg/kg, iv administered daily for 5 days.

Consider `CC(C)C[C@H](NC(=O)[C@H](Cc1ccc(N)cc1)NC(=O)CN1CCNCC1)C(=O)N[C@@H](C)C(=O)N[C@@H](Cc1ccc(-c2ccccc2C(F)(F)F)cc1)C(=O)N1CCC[C@H]1C(=O)N[C@@H](CC(=O)O)C(=O)N[C@@H](C)C(=O)N[C@H](C(=O)N1CCC[C@H]1C(=O)N[C@@H](Cc1ccccc1)C(=O)N[C@@H](CCCNC(=N)N)C(=O)N1CCC[C@H]1C(=O)NCC(=O)NCCCC[C@H](NC(=O)CNC(=O)[C@@H]1CCCN1C(=O)[C@H](CCCNC(=N)N)NC(=O)[C@H](Cc1ccccc1)NC(=O)[C@@H]1CCCN1C(=O)[C@@H](NC(=O)[C@H](C)NC(=O)[C@H](CC(=O)O)NC(=O)[C@@H]1CCCN1C(=O)[C@H](Cc1ccc(-c2ccccc2C(F)(F)F)cc1)NC(=O)[C@H](C)NC(=O)[C@H](CC(C)C)NC(=O)[C@H](Cc1ccc(N)cc1)NC(=O)CN1CCNCC1)C1CCCCC1)C(=O)NCC(=O)N[C@@H](CCCCNC(=O)CCCc1cn(CCCCCC(=O)O)nn1)C(N)=O)C1CCCCC1`, for which the Activity entry in data set [1] was “Non-Toxic”.
Consider `CC(=O)O[C@H]1C(=O)[C@@]2(C)[C@H]([C@H](OC(=O)c3ccccc3)[C@]3(O)C[C@H](OC(=O)[C@H](OC(=O)CCCCCn4cc(CCCC(=O)NCCCC[C@H](NC(=O)CNC(=O)[C@H](CCCCNC(=O)CNC(=O)[C@@H]5CCCN5C(=O)[C@H](CCCNC(=N)N)NC(=O)[C@H](Cc5ccccc5)NC(=O)[C@@H]5CCCN5C(=O)[C@@H](NC(=O)[C@H](C)NC(=O)[C@H](CC(=O)O)NC(=O)[C@@H]5CCCN5C(=O)[C@H](Cc5ccc(-c6ccccc6C(F)(F)F)cc5)NC(=O)[C@H](C)NC(=O)[C@H](CC(C)C)NC(=O)[C@H](Cc5ccc(N)cc5)NC(=O)CN5CCNCC5)C5CCCCC5)NC(=O)CNC(=O)[C@@H]5CCCN5C(=O)[C@H](CCCNC(=N)N)NC(=O)[C@H](Cc5ccccc5)NC(=O)[C@@H]5CCCN5C(=O)[C@@H](NC(=O)[C@H](C)NC(=O)[C@H](CC(=O)O)NC(=O)[C@@H]5CCCN5C(=O)[C@H](Cc5ccc(-c6ccccc6C(F)(F)F)cc5)NC(=O)[C@H](C)NC(=O)[C@H](CC(C)C)NC(=O)[C@H](Cc5ccc(N)cc5)NC(=O)CN5CCNCC5)C5CCCCC5)C(N)=O)nn4)[C@@H](NC(=O)c4ccccc4)c4ccccc4)C(C)=C1C3(C)C)[C@]1(OC(C)=O)CO[C@@H]1C[C@@H]2O`, for which, in data set [1], the Activity result was “Non-Toxic”.
As for `CC(=O)O[C@H]1C(=O)[C@@]2(C)[C@H]([C@H](OC(=O)c3ccccc3)[C@]3(O)C[C@H](OC(=O)[C@H](O)[C@@H](NC(=O)c4ccccc4)c4ccccc4)C(C)=C1C3(C)C)[C@]1(OC(C)=O)CO[C@@H]1C[C@@H]2O` [PACLITAXEL], the Activity result in data set [2] and in data set [3] was “Toxic” throughout.

The values above are taken from ChEMBL document CHEMBL5096230 (J Med Chem, 2022).
